Results as given in US20120142750A1, “INDOLEAMINE 2,3-DIOXYGENASE PATHWAYS IN THE GENERATION OF REGULATORY T CELLS” (Regents of the University of Minnesota, priority 2005, published 2012).
“Also recorded” adds a separate entry of the source.

How the values were obtained:
[1] = test system: primed CD4+ T cells / naive CD4+ T cells; assay: MLR assays of function of CpG-PDC or CpG-B cell primed CD4+ T cells; assay type: cell-based, human
Description: In vitro priming of naive CD4+ T cells. CD4+CD45RA+ naive T cells were primed with allogeneic PDCs or irradiated B cells (30 Gy) at a 10:1 ratio (e.g., 2×10^6 naive CD4+ T cells plus 2×105 PDCs per well in 24-well plates) with ODN 2216 or ODN 2006 present in RPMI 1640 medium supplemented with 10% human AB serum. 1 MT and/or KYN were added into CpG ODN-PDC or CpG ODN-B cell mediated naive CD4+ T cell priming cultures as indicated. In some experiments, blocking Abs against CD80, CD86, HLA-DR or the control IgG Ab (R&D Systems, Minneapolis, Minn.) were added to CpG-PDC-mediated naive CD4+ T cell priming cultures at a final Ab concentration ranging from 0.1 to 10 μg/ml. After 7 days, primed T cells in cultures were harvested, assessed for their surface phenotype, intracellular Foxp3 expression, and their function in MLR assays.
MLR assays. […] In all T cell proliferation assays, plates were incubated at 37° C. for 5 days and pulsed with 1 μCi of 3H-thymidine per well for the last 18 hours before harvesting. All determinations were carried out in triplicate and 3H-thymidine incorporation was determined.

[2] = test system: PDCs and allogeneic naive CD4+ T cells; assay: In vitro priming of naive CD4+ T cells by allogeneic PDCs: CD4+CD25+Foxp3+ Treg generation (flow cytometry); assay type: cell-based, human; settings: added to CpG ODN-PDC/naive CD4+ T cell priming cultures; day 7; 1MT 250 μM, Abs 0.1-10 μg/ml
From the text: PDC, B, and T cell isolation. Human PBMC were isolated under IRE-approved protocols from apheresis products of healthy blood donors (Memorial Blood Centers of Minnesota, Minneapolis, Minn.) by Ficoll-Paque density gradient centrifugation. Plasmascytoid dendritic cells (PDCs) were isolated from PBMC using BDCA-4 cell isolation kits and the MACS system, followed by staining and sorting to collect purified Lin-CD11c-CD123+ PDCs, as reported previously (Moseman et al., J Immunol 2004; 173:4433-4442). […] cells were isolated from PBMC using CD4 T cell isolation kits followed by positive selection with CD45RA microbeads. […] B cells were isolated from PBMC with CD19 microbeads and the MACS system to greater than 98% purity of CD19+ B cells. All cell isolations kits and microbeads were from Miltenyi Biotec (Bergisch Gladbach, Germany). Reagents. Phosphorothioate-modified type-A CpG ODN 2216: […] NO:2), type-B CpG ODN 2006: […] NO:3) (sequences are shown 5'-3'; small letters represent phosphorothioate linkage; capital letters represent phosphodiester linkage 3' of the base; bold represents CpGdinucleotides) were from Integrated DNA Technologies (Coralville, Iowa), diluted in PBS, and used at a final concentration of 1 microgran per milliliter (μg/ml). […] Kynurenine (L-KYN, Sigma-Aldrich) was used at a final concentration of 50 μM. In vitro priming of naive CD4+ T cells. CD4+CD45RA+ naive T cells were primed with allogeneic PDCs or irradiated B cells (30 Gy) at a 10:1 ratio (e.g., 2×10^6 naive CD4+ T cells plus 2×105 PDCs per well in 24-well plates) with ODN 2216 or ODN 2006 present in RPMI 1640 medium supplemented with 10% human AB serum. 1 MT and/or KYN were added into CpG ODN-PDC or CpG ODN-B cell mediated naive CD4+ T cell priming cultures as indicated. […] After 7 days, primed T cells in cultures were harvested, assessed for their surface phenotype, intracellular Foxp3 expression, and their function in MLR assays. […] Mean fluorescence intensity (MFI) and positive cell percentages of stained cells were determined by flow cytometry.

OT-I and A1 T cells = assay: Bystander-suppression assays (TDLN IDO+ DCs, OT-I, Tregs, A1 bystander cells); assay type: cell-based, mouse
Description: Isolation of tumor-draining lymph node DCs.
Bystander-suppression assays. All experiments were repeated 3-5 times unless otherwise indicated. OT-I cells were sorted as CD8^+ spleen cells, gated on the CD11c^NEGB220^NEG fraction to exclude DCs. Sorted DCs from TDLN were mixed with 1×10^5 responder cells at a 1:40 ratio in V-bottom culture wells (Nunc). […] Sorted CD4^+ A1 cells (1×10^5) and CD11c^+ DCs (1:40 ratio) from normal CBA spleen were added as bystander cells. […] For transwell assays, 96-Multiwell insert plates (1 uM pore size, BD Falcon) were used and the number of cells in all groups was doubled.
Feeder layer. Plasmacytoid DCs and Tregs have been reported to require survival factors to maintain viability and function in vitro.
Readouts for T cell proliferation. […] After 72 hours, assays were stained for CD4 vs CD8 and CFSE fluorescence analyzed gated on CD4^+ (A1) and CD8^+ (OT-I) populations.
Anti-CD3 proliferation and preactivation assays. […] For pre-activation studies, 2×10^4 Tregs were cultured with 1×10^5T-depleted spleen cells plus 0.1 ug/ml αCD3 antibody and 200 U/ml IL-2 (R&D Systems) for 48 hours.

Cn1cc(C[C@@H](N)C(=O)O)c2ccccc21 [Inhibitor 1MT, 1-methyl-D-tryptophan]
T cell responses after priming with CpG ODN-activated B cells (control for nonspecific effects) ([1]; 1MT added to priming MLRs with IDO-negative B cells): no nonspecific effect | anergy/hyporesponsiveness of primed CD4+ T cells to subsequent alloantigen stimulation ([1]; 1MT present during priming): prevented CD4+ T cells from becoming anergic/hyporesponsive | suppressor/regulatory activity of PDC-primed T cells on proliferation of naive CD4+ T cells in MLR ([1]; 1MT present during priming): blocked the generation of suppressor/regulatory activity; also recorded: markedly reduced | PDC-induced CD4+CD25+Foxp3+ Treg generation, effect of added agent [2]: significantly reduced | Treg-mediated suppression of bystander cells when IDO blocked (OT-I and A1 T cells; 200 uM 1MT, without αCD3 mitogen): no suppression; also recorded: no spontaneous suppressor activity | αCD3-induced suppression in transwell experiments (OT-I and A1 T cells; 10-fold more Tregs, αCD3 mitogen added): not blocked | suppression of bystander cells by Tregs in transwell chambers (OT-I and A1 T cells; transwell, Tregs with IDO+ DCs in lower chamber): abrogated
